Experimental data as given in publication PMC10881971, “Hepa-ToxMOA: a pathway-screening method for evaluating cellular stress and hepatic metabolic-dependent toxicity of natural products” (Scientific Reports, 2024).
Counter-ions that a name gives are not always drawn. Like-named read-outs stand apart in the source and are kept apart here.

How the values were obtained:
[1] = system: AP1, P53, Nrf2, and NF-κB
CYP3A4 = conditions: cited from earlier work
CYP3A5 = system: CYP3A5; parameters: method as in doi:10.1016/j.ccr.2020.213600; conditions: cited from earlier work
[2] = under metabolic activation (S9+, 1% rat liver S9), 24 h
[3] = without metabolic activation (S9-), 24 h
[4] = regardless of metabolic activation (S9- and S9+), 24 h

Row | Structure (SMILES) | sum of activity scores compared between metabolic activation and non-metabolic conditions [1] | Toxic (natural products exceeding Score 3, Venn diagram list Fig. 3c) ([1]; human) | Toxic (natural products exceeding Score 3, Venn diagram list Fig. 3c) [1] | other results
1 | C[C@@]1(C(=O)O)CC[C@]2(C)CC[C@]3(C)C4=CC(=O)c5c(cc(O)c(O)c5C=O)[C@]4(C)CC[C@@]3(C)[C@@H]2C1 [Demethylzeylasteral] | did not show a response | – | – | –
2 | CO[C@H]1C[C@H](O[C@H]2CC[C@]3(C)[C@H]4CC[C@]5(C)[C@@H](C6=CC(=O)OC6)CC[C@]5(O)[C@@H]4CC[C@]3(O)C2)O[C@H](C)[C@H]1O[C@@H]1O[C@H](CO)[C@@H](O)[C@H](O)[C@H]1O [Periplocoside] | – | – | – | GFP expression, AP1 cell line (AP1; [2]): did not respond; GFP expression, AP1 cell line (AP1; [3]): specifically induced GFP expression
3 | CC[C@@]1(O)C(=O)OCc2c1cc1n(c2=O)Cc2cc3c(OC)cccc3nc2-1 [9-Methoxycamptothecin] | – | – | – | GFP expression, NF-κB cell line (NF-κB; [4]): increased GFP expression
4 | C[C@@H]1CC[C@@]2(OC1)O[C@H]1C[C@H]3[C@@H]4CC=C5C[C@@H](O)C[C@@H](O[C@@H]6O[C@H](C)[C@H](O)[C@H](O)[C@H]6O[C@@H]6O[C@@H](C)[C@H](O)[C@@H](O)[C@H]6O)[C@]5(C)[C@H]4CC[C@]3(C)[C@H]1[C@@H]2C [Ophiopogonin B] | did not show a response | – | – | –
5 | O=C(C[C@@H]1NCCC[C@H]1O)Cn1cnc2ccccc2c1=O [beta-dichroine, beta-febrifugine (beta-dichroine)] | did not show a response | – | – | –
6 | CC1=C(O)C(=O)C=C2C1=CC=C1[C@@]2(C)CC[C@@]2(C)[C@@H]3C[C@](C)(C(=O)O)CC[C@]3(C)CC[C@]12C [Celastrol] | more active under metabolic activation | S9+ only | – | –
7 | CC(=O)O[C@H]1[C@H]2O[C@]23[C@@H]2CC[C@@H]4C[C@@H](O)CC[C@]4(C)[C@H]2CC[C@]3(C)[C@H]1c1ccc(=O)oc1 [Cinobufagin] | consistently active regardless of metabolic activation | – | Common | GFP expression, P53 cell line (P53): increased; active (increased GFP intensity) for all Hepa-ToxMOA cell lines (Fig. 3d) [1]: commonly active; substrate of CYP3A4 (CYP3A4): substrates; substrate of CYP3A5 (CYP3A5): substrates
8 | C[C@@H]1O[C@@H](O[C@H]2[C@H](OC(=O)[C@]34CCC(C)(C)C[C@H]3C3=CC[C@@H]5[C@@]6(C)C[C@H](O)[C@H](O[C@@H]7O[C@H](CO)[C@@H](O)[C@H](O)[C@H]7O)C(CO)(CO)[C@@H]6CC[C@@]5(C)[C@]3(C)C[C@H]4O)OC[C@H](O)[C@@H]2O)[C@H](O)[C@H](O)[C@H]1O[C@@H]1OC[C@@H](O)[C@H](O[C@@H]2OC[C@](O)(CO)[C@H]2O)[C@H]1O [Platycodin D] | more active under metabolic activation | S9+ only | – | –
9 | COc1cc2c3c(c1OC)-c1ccccc1C[C@H]3NCC2 [N-nornuciferine] | consistently active regardless of metabolic activation | – | Common | GFP expression, P53 cell line (P53): no change; increase of GFP expression, P53 cell line (P53): up to 1.5 fold; GFP expression, Nrf2 cell line (Nrf2): induced GFP expression; GFP expression, NF-κB cell line (NF-κB): increased GFP expression; active (increased GFP intensity) for all Hepa-ToxMOA cell lines (Fig. 3d) [1]: commonly active
10 | CC(=O)O[C@H]1[C@H]2O[C@]23[C@@H]2CC[C@]4(O)C[C@@H](O)CC[C@]4(C)[C@H]2CC[C@]3(C)[C@H]1c1ccc(=O)oc1 [Cinobufotalin] | more active without metabolic activation | S9- only | – | –
11 | CCc1c2c(nc3ccc(O)cc13)-c1cc3c(c(=O)n1C2)COC(=O)[C@]3(O)CC [7-Ethyl-10-Hydroxycamptothecin] | – | – | – | GFP intensity, AP1 cell line (AP1): increased
12 | CC[C@]1(O)C[C@@H]2CN(CCc3c([nH]c4ccccc34)[C@@](C(=O)OC)(c3cc4c(cc3OC)N(C)[C@H]3[C@@](O)(C(=O)OC)[C@H](OC(C)=O)[C@]5(CC)C=CCN6CC[C@]43[C@@H]65)C2)C1 [Vinblastine sulfate, reference compound] | more active under metabolic activation | S9+ only | – | –
13 | C[C@@H]1O[C@@H](O[C@H]2[C@H](OC(=O)[C@]34CCC(C)(C)C[C@H]3C3=CC[C@@H]5[C@@]6(C)C[C@H](O)[C@H](O[C@@H]7O[C@H](CO)[C@@H](O)[C@H](O[C@@H]8O[C@H](CO)[C@@H](O)[C@H](O)[C@H]8O)[C@H]7O)C(CO)(CO)[C@@H]6CC[C@@]5(C)[C@]3(C)C[C@H]4O)OC[C@H](O)[C@@H]2O)[C@H](O)[C@H](O)[C@H]1O[C@@H]1OC[C@@H](O)[C@H](O[C@@H]2OC[C@](O)(CO)[C@H]2O)[C@H]1O [Platycodin D2] | more active without metabolic activation | S9- only | – | –
14 | CO[C@]1(CC[C@@H](C)CO[C@@H]2O[C@H](CO)[C@@H](O)[C@H](O)[C@H]2O)O[C@H]2C[C@H]3[C@@H]4CC=C5C[C@@H](O[C@@H]6O[C@H](CO)[C@@H](O[C@@H]7O[C@@H](C)[C@H](O)[C@@H](O)[C@H]7O)[C@H](O)[C@H]6O[C@@H]6O[C@@H](C)[C@H](O)[C@@H](O)[C@H]6O)CC[C@]5(C)[C@H]4CC[C@]3(C)[C@H]2[C@@H]1C [Methyl protodioscin] | – | – | – | GFP intensity, AP1 cell line (AP1): increased
15 | C[C@]12CC[C@H](O)C[C@@]1(O)CC[C@@H]1[C@@H]2CC[C@]2(C)[C@@H](c3ccc(=O)oc3)CC[C@]12O [Telocinobufagin] | more active without metabolic activation | S9- only | – | –
16 | C[C@]12CC[C@H](O)C[C@H]1CC[C@@H]1[C@@H]2[C@H](O)C[C@]2(C)[C@@H](c3ccc(=O)oc3)CC[C@]12O [Gamabufotalin] | more active without metabolic activation | S9- only | – | GFP expression, P53 cell line (P53): increased
17 | C[C@]12CC[C@H](O)C[C@H]1CC[C@@H]1[C@@H]2CC[C@]2(C)[C@@H](c3ccc(=O)oc3)C[C@H]3O[C@]132 [Bufogenin] | consistently active regardless of metabolic activation | – | Common | GFP expression, AP1 cell line (AP1; [2]): did not respond; GFP expression, AP1 cell line (AP1; [3]): specifically induced GFP expression; GFP expression, P53 cell line (P53): increased; active (increased GFP intensity) for all Hepa-ToxMOA cell lines (Fig. 3d) [1]: commonly active
18 | C[C@]12CC[C@H](O)C[C@H]1CC[C@@H]1[C@@H]2CC[C@]2(C)[C@@H](c3ccc(=O)oc3)CC[C@]12O [Bufalin] | more active under metabolic activation | S9+ only | – | GFP expression, AP1 cell line (AP1; [2]): did not respond; GFP expression, AP1 cell line (AP1; [3]): specifically induced GFP expression
19 | COc1cc([C@@H]2c3cc4c(cc3[C@H](O)[C@H]3COC(=O)[C@@H]23)OCO4)cc(OC)c1OC [Picropodophyllotoxin] | – | – | – | GFP expression, AP1 cell line (AP1; [2]): did not respond; GFP expression, AP1 cell line (AP1; [3]): specifically induced GFP expression
20 | CC(C)=CCc1c(O)cc2oc3cc(O)c(O)c(CCC(C)(C)O)c3c(=O)c2c1O [Garcinone C] | more active under metabolic activation | – | S9+ only | –
21 | C[C@]12CC[C@H](O)C[C@H]1CC[C@@H]1[C@@H]2[C@H](O)C(=O)[C@]2(C)[C@@H](c3ccc(=O)oc3)CC[C@]12O [Arenobufagin] | more active without metabolic activation | – | S9- only | GFP expression, AP1 cell line (AP1; [2]): did not respond; GFP expression, AP1 cell line (AP1; [3]): specifically induced GFP expression
22 | COc1cc([C@@H]2c3cc4c(cc3[C@H](O)[C@H]3COC(=O)[C@H]23)OCO4)cc(OC)c1OC [Podophyllotoxin, reference compound] | consistently active regardless of metabolic activation | – | Common | GFP expression, AP1 cell line (AP1; [2]): did not respond; GFP expression, AP1 cell line (AP1; [3]): specifically induced GFP expression
23 | CC[C@@]1(O)C(=O)OCc2c1cc1n(c2=O)Cc2cc3cc(O)ccc3nc2-1 [10-Hydroxycamptothecin] | consistently active regardless of metabolic activation | – | Common | GFP intensity, AP1 cell line (AP1; [4]): increased
24 | COc1c(O)cc2oc3cc(O)c(CC=C(C)C)c(O)c3c(=O)c2c1CC=C(C)C [alpha-Mangostin] | more active under metabolic activation | – | S9+ only | –
25 | CC[C@]1(O)C[C@H]2CN(CCc3c([nH]c4ccccc34)[C@@](C(=O)OC)(c3cc4c(cc3OC)N(C=O)[C@H]3[C@@](O)(C(=O)OC)[C@H](OC(C)=O)[C@]5(CC)C=CCN6CC[C@]43[C@@H]65)C2)C1 [Vincristine, reference compound] | more active under metabolic activation | S9+ only | – | active (increased GFP intensity) for all Hepa-ToxMOA cell lines (Fig. 3d) [1]: commonly active
